Converted amounts (≈) assume the structure as drawn.
Tests used:
Aspergillus flavus = assay: Antifungal activity against Aspergillus flavus ATCC 9170 by micro-broth dilution method; type: functional
Aspergillus niger = assay: Antifungal activity against Aspergillus niger ATCC 9029 by micro-broth dilution method; type: functional
Candida albicans = assay: Antifungal activity against Candida albicans ATCC 10231 by micro-broth dilution method; type: functional
Aspergillus fumigatus = assay: Antifungal activity against Aspergillus fumigatus ATCC 26934 by micro-broth dilution method; type: functional
Trichophyton rubrum = assay: Antifungal activity against Trichophyton rubrum C113 by microbroth dilution method; type: functional
Saccharomyces cerevisiae = assay: Antifungal activity against Saccharomyces cerevisiae ATCC 9763 by microbroth dilution method; type: functional
Cryptococcus neoformans [1] = assay: Antifungal activity against Cryptococcus neoformans ATCC 32264 by microbroth dilution method; type: functional
[2] = system: Trichophyton mentagrophytes; assay: Antifungal activity against Trichophyton mentagrophytes ATCC 9972 by micro-broth dilution method; type: functional
Nannizzia gypsea = assay: Antifungal activity against Microsporum gypseum C115 by microbroth dilution method; type: functional
Candida tropicalis = assay: Antifungal activity against Candida tropicalis C131 by micro-broth dilution method; type: functional
SF-268 = assay: Cytotoxicity against human SF268 cells by SRB assay; type: functional, cell-based
NCI-H460 = assay: Cytotoxicity against human H460 cells by SRB assay; type: functional, cell-based
Cryptococcus neoformans [3] = assay: Antifungal activity against Cryptococcus neoformans IM 961951 by micro-broth dilution method; type: functional
Cryptococcus neoformans [4] = assay: Antifungal activity against Cryptococcus neoformans IM 983036 by micro-broth dilution method; type: functional
Cryptococcus neoformans [5] = assay: Antifungal activity against Cryptococcus neoformans IM 972751 by microbroth dilution method; type: functional
MCF7 = assay: Cytotoxicity against human MCF7 cells by SRB assay; type: functional, cell-based
Cryptococcus neoformans [6] = assay: Antifungal activity against Cryptococcus neoformans IM 972724 by micro-broth dilution method; type: functional
Cryptococcus neoformans [7] = assay: Antifungal activity against Cryptococcus neoformans IM 983040 by micro-broth dilution method; type: functional
Cryptococcus neoformans [8] = assay: Antifungal activity against Cryptococcus neoformans IM 00319 by microbroth dilution method; type: functional
Cryptococcus neoformans [9] = assay: Antifungal activity against Cryptococcus neoformans IM 042074 by micro-broth dilution method; type: functional
Cryptococcus neoformans [10] = assay: Antifungal activity against Cryptococcus neoformans IM 031631 by micro-broth dilution method; type: functional
Cryptococcus neoformans [11] = assay: Antifungal activity against Cryptococcus neoformans IM 031706 by micro-broth dilution method; type: functional

Structure (SMILES)	MIC (Aspergillus flavus)	MIC (Aspergillus niger)	MIC (Candida albicans)	MIC (Aspergillus fumigatus)	MIC (Trichophyton rubrum)	MIC (Saccharomyces cerevisiae)	MIC (Cryptococcus neoformans [1])	MIC [2]	MIC (Nannizzia gypsea)	MIC (Candida tropicalis)	also measured
C=CCC(Nc1ccc(OC)cc1)c1ccncc1 (centres undefined)	> 250 mg/L	> 250 mg/L	> 250 mg/L	> 250 mg/L	125 mg/L (≈ 491 µM)	> 250 mg/L	> 250 mg/L	125 mg/L (≈ 491 µM)	62.5 mg/L (≈ 246 µM)	> 250 mg/L	–
CC(=O)N1CCN(c2ccc(OC[C@H]3CO[C@](Cn4ccnc4)(c4ccc(Cl)cc4Cl)O3)cc2)CC1 [KETOCONAZOLE]	0.5 mg/L (≈ 0.941 µM)	0.25 mg/L (≈ 0.47 µM)	0.5 mg/L (≈ 0.941 µM)	0.125 mg/L (≈ 0.235 µM)	0.025 mg/L (≈ 0.047 µM)	0.5 mg/L (≈ 0.941 µM)	0.25 mg/L (≈ 0.47 µM)	0.025 mg/L (≈ 0.047 µM)	0.05 mg/L (≈ 0.0941 µM)	0.125 mg/L (≈ 0.235 µM)	–
C=CCC(Nc1ccccc1)c1ccsc1 (centres undefined)	> 250 mg/L	> 250 mg/L	> 250 mg/L	> 250 mg/L	250 mg/L (≈ 1090 µM)	> 250 mg/L	250 mg/L (≈ 1090 µM)	250 mg/L (≈ 1090 µM)	125 mg/L (≈ 545 µM)	> 250 mg/L	–
COc1cccc2c1C(=O)c1c(O)c3c(c(O)c1C2=O)C[C@@](O)(C(=O)CO)C[C@@H]3O[C@H]1C[C@H](N)[C@H](O)[C@H](C)O1 [DOXORUBICIN]	–	–	–	–	–	–	–	–	–	–	IC50 (SF-268): 0.14 mg/L (≈ 0.258 µM); IC50 (NCI-H460): 0.18 mg/L (≈ 0.331 µM)
N#CC(Nc1ccccc1)c1cccs1 (centres undefined)	> 250 mg/L	> 250 mg/L	> 250 mg/L	> 250 mg/L	250 mg/L (≈ 1170 µM)	> 250 mg/L	> 250 mg/L	250 mg/L (≈ 1170 µM)	> 250 mg/L	> 250 mg/L	–
C=CCC(Nc1ccc(Br)cc1)c1ccncc1 (centres undefined)	> 250 mg/L	> 250 mg/L	> 250 mg/L	> 250 mg/L	16 mg/L (≈ 52.8 µM)	> 250 mg/L	> 250 mg/L	31.2 mg/L (≈ 103 µM)	16 mg/L (≈ 52.8 µM)	> 250 mg/L	–

The next lines start with results.

MIC (Aspergillus flavus)	MIC (Aspergillus niger)	MIC (Candida albicans)	MIC (Aspergillus fumigatus)	MIC (Trichophyton rubrum)	MIC (Saccharomyces cerevisiae)	MIC (Cryptococcus neoformans [1])	MIC [2]	MIC (Nannizzia gypsea)	MIC (Candida tropicalis)	Structure (SMILES)	also measured
> 250 mg/L	> 250 mg/L	> 250 mg/L	> 250 mg/L	250 mg/L (≈ 1260 µM)	> 250 mg/L	> 250 mg/L	250 mg/L (≈ 1260 µM)	> 250 mg/L	> 250 mg/L	N#CC(Nc1ccccc1)c1ccco1 (centres undefined)	–
250 mg/L (≈ 1340 µM)	250 mg/L (≈ 1340 µM)	250 mg/L (≈ 1340 µM)	250 mg/L (≈ 1340 µM)	250 mg/L (≈ 1340 µM)	250 mg/L (≈ 1340 µM)	125 mg/L (≈ 668 µM)	250 mg/L (≈ 1340 µM)	125 mg/L (≈ 668 µM)	250 mg/L (≈ 1340 µM)	Cc1ccc(NCc2ccoc2)cc1	–
62.5 mg/L (≈ 301 µM)	62.5 mg/L (≈ 301 µM)	125 mg/L (≈ 602 µM)	62.5 mg/L (≈ 301 µM)	62.5 mg/L (≈ 301 µM)	125 mg/L (≈ 602 µM)	62.5 mg/L (≈ 301 µM)	62.5 mg/L (≈ 301 µM)	125 mg/L (≈ 602 µM)	125 mg/L (≈ 602 µM)	Clc1ccc(NCc2ccoc2)cc1	–
100 mg/L (≈ 436 µM)	200 mg/L (≈ 872 µM)	100 mg/L (≈ 436 µM)	200 mg/L (≈ 872 µM)	50 mg/L (≈ 218 µM)	100 mg/L (≈ 436 µM)	50 mg/L (≈ 218 µM)	50 mg/L (≈ 218 µM)	50 mg/L (≈ 218 µM)	100 mg/L (≈ 436 µM)	O=[N+]([O-])c1cccc(NCc2ccccn2)c1	–
50 mg/L (≈ 207 µM)	62.5 mg/L (≈ 258 µM)	62.5 mg/L (≈ 258 µM)	50 mg/L (≈ 207 µM)	3.12 mg/L (≈ 12.9 µM)	50 mg/L (≈ 207 µM)	25 mg/L (≈ 103 µM)	12.5 mg/L (≈ 51.6 µM)	6.25 mg/L (≈ 25.8 µM)	62.5 mg/L (≈ 258 µM)	Clc1ccc(NCc2ccco2)cc1Cl	MIC (Cryptococcus neoformans [3]): 100 mg/L (≈ 413 µM); MIC (Cryptococcus neoformans [4]): 25 mg/L (≈ 103 µM); MIC (Cryptococcus neoformans [5]): 100 mg/L (≈ 413 µM); IC50 (MCF7): 8 mg/L (≈ 33 µM); MIC (Cryptococcus neoformans [6]): 25 mg/L (≈ 103 µM); MIC (Cryptococcus neoformans [7]): 100 mg/L (≈ 413 µM); MIC (Cryptococcus neoformans [8]): 100 mg/L (≈ 413 µM); IC50 (SF-268): 8.2 mg/L (≈ 33.9 µM); MIC (Cryptococcus neoformans [9]): 25 mg/L (≈ 103 µM); MIC (Cryptococcus neoformans [10]): 100 mg/L (≈ 413 µM); MIC (Cryptococcus neoformans [11]): 100 mg/L (≈ 413 µM); IC50 (NCI-H460): 8.7 mg/L (≈ 35.9 µM)

Source: ChEMBL document CHEMBL1143950, “Antifungal and cytotoxic activities of some N-substituted aniline derivatives bearing a hetaryl fragment” (Bioorg Med Chem, 2008)
